According to PubChem BioAssay (NCI):
Where “and” joins values, the source holds several entries; their conditions need not be identical. Identical values can stand only once.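 96-well plates; 48 h exposure; 5 concentrations. Endpoints by linear interpolation between flanking doses. Not reached: highest tested concentration assigned. GI50 = concentration required for 50% inhibition of growth. TGI is the concentration that stops growth completely.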

Legend:
Assay in all cases: NCI-60 cell line screen, 48 h
UO-31 renal = tested on: UO-31 renal
NCI-H522 lung = tested on: NCI-H522 lung
COLO 205 colon = tested on: COLO 205 colon
NCI/ADR-RES ovarian = tested on: NCI/ADR-RES ovarian
SF-268 CNS = tested on: SF-268 CNS
HCT-15 colon = tested on: HCT-15 colon
OVCAR-3 ovarian = tested on: OVCAR-3 ovarian
A549 NSCLC = tested on: A549 NSCLC
DU-145 prostate = tested on: DU-145 prostate
OVCAR-8 ovarian = tested on: OVCAR-8 ovarian

Compound | GI50 (UO-31 renal) [µM] | TGI (UO-31 renal) | GI50 (NCI-H522 lung) [µM] | TGI (NCI-H522 lung) | GI50 (COLO 205 colon) [µM] | TGI (COLO 205 colon) | GI50 (NCI/ADR-RES ovarian) [µM] | TGI (NCI/ADR-RES ovarian) [µM] | GI50 (SF-268 CNS) [µM] | TGI (SF-268 CNS) | GI50 (HCT-15 colon) [µM] | TGI (HCT-15 colon) | GI50 (OVCAR-3 ovarian) [µM] | TGI (OVCAR-3 ovarian) | GI50 (A549 NSCLC) [µM] | TGI (A549 NSCLC) | GI50 (DU-145 prostate) [µM] | TGI (DU-145 prostate) [µM] | GI50 (OVCAR-8 ovarian) [µM] | TGI (OVCAR-8 ovarian)
COc1cc(/C=C/C(=O)c2cccc(Nc3nc(Nc4ccccc4)nc(Nc4ccccc4)n3)c2)cc(OC)c1OC | 5.15 | > 100 µM | 5.11 | > 100 µM | 4.77 | 30.7 µM | 3.82 | > 100 | 13.8 | > 100 µM | 4.57 | > 100 µM | 4.49 | 56 µM | 36.6 | > 100 µM | 5.91 | > 100 | 0.988 | > 100 µM
C=C(C)C(=O)Nc1ccc(NC(C)C)cc1 | > 100 | > 100 µM | > 100 | > 100 µM | > 100 | > 100 µM | > 100 | > 100 | > 100 | > 100 µM | > 100 | > 100 µM | > 100 | > 100 µM | > 100 | > 100 µM | > 100 | > 100 | > 100 | > 100 µM
COc1ccc2nc3cccc([N+](=O)[O-])c3c(NCCCCCC(=O)O)c2c1 | 0.161 | 0.484 µM | 0.0363 | 0.101 µM |  | 0.078 µM | 0.313 | 2.61 | 0.0755 | 0.701 µM | 0.0251 |  | 0.12 | 2.64 µM | 0.12 | 2.17 µM | 0.043 | 1.02 | 0.0877 | 2.22 µM
c1ccc2[nH]c(-c3ccc(-c4nccc5c4[nH]c4ccccc45)cc3)nc2c1 | 1.69 | 3.27 µM | 2.06 | 5.04 µM | 2.32 | 6.22 µM | 3.5 | 15.2 | 2.89 | 10.2 µM | 2.22 | 5.61 µM | 1.8 | 3.64 µM | 4.15 | 18.6 µM | 4.02 | 16.2 | 3.3 | 13.5 µM
Cc1cc(O)c(C(C)C)cc1S(=O)(=O)O (tested in a mixture with another compound) | 0.382 |  | 0.238 |  | 0.224 |  | 0.658 | 4.79 | 0.797 |  | 0.38 |  | 0.259 |  | 0.372 |  | 0.363 | 2.45 | 0.335 | 
O=C(O)C(/C=C/c1ccccc1)c1ccccc1 (stereo not drawn) |  | > 100 µM |  | > 100 µM |  | > 100 µM |  | > 100 |  | > 100 µM |  | > 100 µM |  | > 100 µM |  | > 100 µM |  | > 100 |  | > 100 µM
CN(C)CCN1C(=O)c2ccccc2N(C)c2ccccc21 | > 100 | > 100 µM | > 100 | > 100 µM | > 100 | > 100 µM | > 100 | > 100 | > 100 | > 100 µM | > 100 | > 100 µM | > 100 | > 100 µM | > 100 | > 100 µM | > 100 | > 100 | > 100 | > 100 µM
Cc1cc2c(cc1C)N(C(=O)CCl)CC(=O)N2 | 1.74 | 3.24 µM | 0.568 | 1.97 µM | 2.09 | 3.68 µM | 3.18 | > 100 | 3.47 | 11.6 µM | 1.74 | 3.42 µM | 1.89 | 3.33 µM | 8.23 | 26.7 µM | 3.49 | 10.2 | 3.01 | 10.8 µM
CC/C=C1/C(=O)C=C[C@@H]1C/C=C\CCCC(=O)OC | 2.24 | 5.43 µM | 1.56 | 3.57 µM | 2.4 | 5.18 µM | 2.88 | 14.5 | 3.03 | 13.1 µM | 1.94 | 5.31 µM | 3.05 | 10.2 µM | 13.3 | 29.5 µM | 4.56 | 16.4 | 3.72 | 14.9 µM
C#Cc1c(F)ccc2cc(O)cc(-c3ncc4c(N5CC6CCC(C5)N6)nc(OC[C@@]56CCCN5C[C@H](F)C6)nc4c3F)c12 | > 34.8 | > 50.2 µM | 14.5 | 31.3 µM | 16.1 | 45.1 µM | > 100 | > 100 | 12 | 25.4 µM | 34.7 | > 50.6 µM | 12.7 | 25.9 µM | 10.9 | 45.2 µM | 14.9 | 28.6 | 17.3 | 36.4 µM
COc1ccc(-c2cn(-c3cc(OC)c(OC)c(OC)c3)c(SCc3ccccc3)n2)cc1OC | 45.5 | > 100 µM | > 100 | > 100 µM | > 100 | > 100 µM | > 100 | > 100 | > 100 | > 100 µM | > 100 | > 100 µM | > 100 | > 100 µM | > 100 | > 100 µM | > 100 | > 100 | > 100 | > 100 µM
COc1ccc(/C(COc2ccc3c(=O)cc(-c4ccccc4)oc3c2)=N\O)cc1 | 13.5 | > 50 µM | 7.32 | 26.6 µM | 26.5 | > 50 µM | 15.4 | > 50 | 11.3 | > 36.8 µM | 22.8 | > 50 µM | 10.3 | 38.7 µM | 20.1 | > 50 µM | 11.5 | > 47.4 | 21.4 | > 35.5 µM
CC(C)(C)OC(=O)N1CCN(CCn2cc(C(F)(F)F)c3c(Cl)ncnc32)CC1 | 11.6 | 24.4 µM | 15.1 | 29.9 µM | 18.4 | 37.9 µM | 23 | 67.7 | 1.82 | 3.61 µM | 1.94 | 3.94 µM | 1.88 | 3.66 µM | 19.3 | 35.6 µM | 2.96 | 9.2 | 2.06 | 3.76 µM
COc1cc(C[C@H]2c3cc(OC)c(OC)cc3CCN2C)c(Oc2cc3c(cc2OC)-c2c(OC)c(OC)cc4c2[C@H](C3)N(C)CC4)cc1OC | 9.73 | 16.8 µM and 22.6 µM | 5.13 | 16.2 µM and 17 µM | 2.17 | 12.6 µM and 8.09 µM |  | 32.3 | 14.3 | 31 µM and 28.4 µM | 10.8 | 26.4 µM and 23.4 µM | 11.8 | 23.6 µM and 24.8 µM | 15.6 | 28.2 µM and 29.4 µM |  | 39.6 | 17 | 18.5 µM and 35 µM
COc1cc(OC(=O)c2ccccc2)cc2c1C(=O)C=CC2=O |  | 22.8 µM |  | 12.4 µM |  | 33.7 µM |  | > 88.6 |  | 36.3 µM |  | 31.4 µM |  | 14.2 µM |  | 68.4 µM |  | 34.4 |  | 63.3 µM
C=C(C)C(=O)O[C@H]1CC(=C)[C@@H]2C[C@H](O)[C@](O)(CCl)[C@@H]2[C@H]2OC(=O)C(=C)[C@@H]21 | 2.73 | 9.27 µM | 1.91 | 4 µM | 1.87 | 3.66 µM | 3.33 | 13.2 | 3.76 | 17.4 µM | 1.89 | 4.42 µM | 1.81 | 4.38 µM | 18.4 | 38.2 µM | 2.16 | 6.33 | 3.24 | 12.8 µM
COc1ccc2cc(C(=O)/C=C/c3ccc(Cl)cc3Cl)ccc2c1 | 15.5 | 32.3 µM | 32.8 | 85.5 µM | 20.3 | 55.7 µM | 23 | > 100 | > 100 | > 100 µM | 9.17 | 29.7 µM | 16.8 | 43.9 µM | 14.1 | 31.9 µM | 23 | 62.1 | 14.8 | 30.4 µM
CC(C)N(Cc1ccccc1)c1c(S)ssc1=S | 3.6 | 70.6 µM | 2.06 | > 100 µM | 1.56 | 4.26 µM | 3.33 | > 100 | 2.86 | 31.7 µM | 3.16 | 13.5 µM | 1.21 | > 100 µM | 2.41 | 12.9 µM | 3.15 | 28.7 | 2.44 | 22.2 µM
O=C(CCCCCCCCC(=O)N/N=C\c1ccccc1O)N/N=C\c1ccccc1O | 0.197 | 3.9 µM | 0.257 | > 100 µM | 2.63 | > 35.2 µM | 0.514 | 25.4 | 0.342 | 9.72 µM | 0.298 | > 100 µM | 0.343 | > 51.2 µM | 0.81 | > 25.2 µM | 0.579 | 15.5 | 0.349 | 5.8 µM
CCN(CC)CCCCNc1c2ccccc2[n+](C)c2c1[nH]c1ccccc12 | 3.13 | > 50.6 µM | 0.0796 | 0.217 µM | 0.189 | 0.983 µM | 48.8 | > 100 | 0.209 | 1.4 µM | 7.15 | > 70 µM | 0.433 | 3.56 µM | 0.0558 | 33.2 µM | 0.182 | 11.5 | 0.786 | 19.8 µM
O=C1c2ccccc2C(O)(O)C1(O)C1(O)C(=O)c2ccccc2C1(O)O (stereo not drawn) |  | 48.7 µM |  | 44.5 µM |  | 40.5 µM |  | > 100 |  | > 100 µM |  | 44.1 µM |  | 65.9 µM |  | > 100 µM |  | > 100 |  | > 100 µM
